Assay results as given in patent US20080009418A1, “Selective Inhibitors” (Alchemia LTD., priority 2004, published 2008).

Key:
Human melanocortin (MC5) = biological target: T1, Human melanocortin (MC5) (Homo sapiens, UniProt P33032); test: Radioligand binding, human melanocortin MC5 membranes, FlashPlate, [125I]-NDP-αMSH; details: compound at 10 μM, [125I]-NDP-αMSH
T1 construct: purchased Perkin Elmer Biosignal
Summary of the method: (§1)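 Cloned human receptor membranes were coated onto FlashPlate wells and incubated with radioligand and compound (added from a 0.5 mM DMSO daughter plate) for 1 hour at room temperature in the dark. Scintillation counting gave percent inhibition, with DMSO defining total and reference ligand defining non-specific binding.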

[1] = biological target: T2, Human melanin-concentrating hormone (MCH1) (Homo sapiens, UniProt Q99705); test: Radioligand binding, human melanin-concentrating hormone MCH1 membranes, FlashPlate, [125I]-S36057; details: compound at 10 μM
T2 construct: purchased Perkin Elmer Biosignal
T2 sequence (Q99705 whole entry): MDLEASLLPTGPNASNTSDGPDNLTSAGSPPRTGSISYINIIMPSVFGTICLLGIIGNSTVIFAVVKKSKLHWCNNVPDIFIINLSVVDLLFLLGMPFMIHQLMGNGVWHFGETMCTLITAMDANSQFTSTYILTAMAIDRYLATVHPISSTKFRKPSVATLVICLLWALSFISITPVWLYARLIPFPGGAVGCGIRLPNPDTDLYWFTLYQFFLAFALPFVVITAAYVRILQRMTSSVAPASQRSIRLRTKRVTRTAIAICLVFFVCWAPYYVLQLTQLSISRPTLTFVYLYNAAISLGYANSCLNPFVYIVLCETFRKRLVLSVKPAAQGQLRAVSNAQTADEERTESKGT
Summary of the method: as §1

[2] = biological target: T3, Human neuropeptide Y (NPY-Y1) (Homo sapiens, UniProt P25929); test: Radioligand binding, human neuropeptide Y NPY-Y1 membranes, FlashPlate, [125I]-PYY; details: compound at 10 μM, [125I]-PYY
T3 construct: purchased Perkin Elmer Biosignal
T3 sequence (P25929 1-384): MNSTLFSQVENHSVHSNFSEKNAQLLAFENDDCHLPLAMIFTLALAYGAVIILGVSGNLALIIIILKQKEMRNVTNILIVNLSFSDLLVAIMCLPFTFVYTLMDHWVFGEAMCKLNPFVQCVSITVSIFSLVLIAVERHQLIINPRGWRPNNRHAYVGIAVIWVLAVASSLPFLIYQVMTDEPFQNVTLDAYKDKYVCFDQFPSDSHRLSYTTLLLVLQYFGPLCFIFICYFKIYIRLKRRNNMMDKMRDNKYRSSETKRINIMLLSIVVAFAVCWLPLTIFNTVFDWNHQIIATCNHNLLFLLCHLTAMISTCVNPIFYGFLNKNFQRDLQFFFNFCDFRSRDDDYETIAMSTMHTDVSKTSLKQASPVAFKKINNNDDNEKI
Summary of the method: as §1

Human δ-opioid (DOP) = biological target: T4, Human δ-opioid (DOP) (Homo sapiens, UniProt P41143); test: Radioligand binding, human δ-opioid (DOP) membranes, FlashPlate, [3H]-Bremazocine; details: compound at 10 μM, [3H]-Bremazocine
T4 construct: purchased Perkin Elmer Biosignal
T4 sequence (P41143 whole entry): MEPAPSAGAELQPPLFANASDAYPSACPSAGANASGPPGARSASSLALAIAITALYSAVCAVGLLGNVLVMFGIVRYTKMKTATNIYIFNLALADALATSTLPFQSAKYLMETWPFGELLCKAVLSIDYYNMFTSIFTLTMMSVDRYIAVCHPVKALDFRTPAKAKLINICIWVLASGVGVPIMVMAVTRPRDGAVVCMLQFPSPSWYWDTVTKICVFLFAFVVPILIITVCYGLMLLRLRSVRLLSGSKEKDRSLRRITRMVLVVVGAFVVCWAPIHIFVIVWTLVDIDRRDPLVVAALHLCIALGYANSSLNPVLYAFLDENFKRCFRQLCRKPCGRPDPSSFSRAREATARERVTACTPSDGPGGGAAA
Summary of the method: as §1

Human Melanocortin (MC4) = biological target: T5, Human Melanocortin (MC4) (Homo sapiens, UniProt P32245); test: Radioligand binding, human melanocortin MC4 membranes, FlashPlate, [125I]-NDP-αMSH; details: compound at 10 μM, [125I]-NDP-αMSH
T5 construct: purchased Perkin Elmer Biosignal
T5 sequence (P32245 whole entry): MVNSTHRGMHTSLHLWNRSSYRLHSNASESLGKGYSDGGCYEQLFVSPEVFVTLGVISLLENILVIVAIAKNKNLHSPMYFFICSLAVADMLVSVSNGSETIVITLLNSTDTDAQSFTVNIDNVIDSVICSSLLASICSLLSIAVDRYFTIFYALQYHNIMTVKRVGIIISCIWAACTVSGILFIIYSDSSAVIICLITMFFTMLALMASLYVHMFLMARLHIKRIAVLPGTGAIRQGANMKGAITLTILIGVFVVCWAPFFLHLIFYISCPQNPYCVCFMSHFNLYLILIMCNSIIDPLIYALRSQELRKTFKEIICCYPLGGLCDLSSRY
Summary of the method: as §1

Mouse urotensin (mUR2) = biological target: T6, Mouse urotensin (mUR2) (Mus musculus, UniProt Q8VIH9); test: Radioligand binding, mouse urotensin mUR2 membranes, FlashPlate, [125I]-Urotensin II; details: compound at 10 μM, [125I]-Urotensin II
T6 construct: purchased Perkin Elmer Biosignal
T6 sequence (Q8VIH9 1-385): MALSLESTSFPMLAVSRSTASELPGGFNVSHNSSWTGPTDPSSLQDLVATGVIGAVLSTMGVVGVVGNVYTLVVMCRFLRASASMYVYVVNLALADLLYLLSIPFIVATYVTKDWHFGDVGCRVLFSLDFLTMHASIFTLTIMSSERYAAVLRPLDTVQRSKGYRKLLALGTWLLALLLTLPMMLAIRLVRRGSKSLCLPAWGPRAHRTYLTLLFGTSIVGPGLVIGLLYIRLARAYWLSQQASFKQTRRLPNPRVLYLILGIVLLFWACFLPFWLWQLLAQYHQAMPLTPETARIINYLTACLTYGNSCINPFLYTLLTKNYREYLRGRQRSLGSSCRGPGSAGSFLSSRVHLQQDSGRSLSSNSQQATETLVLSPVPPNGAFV
Summary of the method: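 Cloned mouse urotensin (mUR2) receptor membranes from Perkin Elmer Biosignal were immobilized in FlashPlate microplates using a proprietary coating. Each well got 19.5 μl buffer, then 0.5 μl of DMSO, reference ligand, or compound. Adding 5 μl of [125I]-Urotensin II, diluted to 5× final concentration in binding buffer, started binding. Plates were sealed with TopSeal-A and incubated 1 hour at room temperature in the dark. Wells were counted for 30 seconds each on a TopCount after a 60-second delay, and percentage inhibition was calculated.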

Human opioid (ORL1) = biological target: T7, Human opioid (ORL1) (Homo sapiens, UniProt P41146); test: Radioligand binding, human opioid ORL1 membranes, FlashPlate, [125I]-Nociceptin; details: compound at 10 μM, [125I]-Nociceptin
T7 construct: purchased Perkin Elmer Biosignal
T7 sequence (P41146 whole entry): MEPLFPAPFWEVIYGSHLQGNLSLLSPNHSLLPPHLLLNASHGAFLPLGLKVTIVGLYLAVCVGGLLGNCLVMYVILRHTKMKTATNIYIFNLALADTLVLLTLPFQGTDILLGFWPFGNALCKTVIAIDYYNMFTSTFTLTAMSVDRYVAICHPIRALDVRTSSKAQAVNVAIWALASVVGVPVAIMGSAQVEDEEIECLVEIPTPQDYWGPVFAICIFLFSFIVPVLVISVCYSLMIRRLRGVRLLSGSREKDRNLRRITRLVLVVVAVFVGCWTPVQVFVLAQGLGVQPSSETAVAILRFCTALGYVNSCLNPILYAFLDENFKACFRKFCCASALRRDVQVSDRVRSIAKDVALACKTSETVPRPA
Summary of the method: as §1

Human κ-Opioid (KOP) = biological target: T8, Human κ-Opioid (KOP) (Homo sapiens, UniProt P41145); test: Radioligand binding, human κ-opioid (KOP) membranes, filtration, [3H]-Diprenorphine; details: compound at 10 μM, [3H]-Diprenorphine
T8 construct: purchased Perkin Elmer Biosignal
T8 sequence (P41145 whole entry): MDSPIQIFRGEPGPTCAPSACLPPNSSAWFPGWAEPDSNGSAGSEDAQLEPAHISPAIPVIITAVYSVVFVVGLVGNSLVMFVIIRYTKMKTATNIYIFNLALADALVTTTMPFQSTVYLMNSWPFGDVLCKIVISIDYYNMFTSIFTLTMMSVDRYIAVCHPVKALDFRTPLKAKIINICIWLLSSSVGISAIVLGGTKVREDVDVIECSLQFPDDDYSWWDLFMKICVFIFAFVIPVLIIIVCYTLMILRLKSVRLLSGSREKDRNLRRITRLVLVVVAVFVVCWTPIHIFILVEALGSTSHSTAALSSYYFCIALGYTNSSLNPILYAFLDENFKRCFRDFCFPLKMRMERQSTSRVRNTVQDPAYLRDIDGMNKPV
Summary of the method: (§2)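 Filtration binding on cloned human receptor membranes (1 Unit/well), [125I]-Substance P for NK1 and [3H]-Diprenorphine for KOP, 1 h at room temperature. Filters PEI-presoaked, washed with cold 50 mM Tris-HCl pH 7.4, counted by scintillation; percent inhibition calculated, reference ligand defining non-specific binding.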

Human μ-opioid (MOP) = biological target: T9, Human μ-opioid (MOP) (Homo sapiens, UniProt P35372); test: Radioligand binding, human μ-opioid (MOP) membranes, FlashPlate, [3H]-Naloxone; details: compound at 10 μM, [3H]-Naloxone
T9 construct: purchased Perkin Elmer Biosignal
T9 sequence (P35372 whole entry): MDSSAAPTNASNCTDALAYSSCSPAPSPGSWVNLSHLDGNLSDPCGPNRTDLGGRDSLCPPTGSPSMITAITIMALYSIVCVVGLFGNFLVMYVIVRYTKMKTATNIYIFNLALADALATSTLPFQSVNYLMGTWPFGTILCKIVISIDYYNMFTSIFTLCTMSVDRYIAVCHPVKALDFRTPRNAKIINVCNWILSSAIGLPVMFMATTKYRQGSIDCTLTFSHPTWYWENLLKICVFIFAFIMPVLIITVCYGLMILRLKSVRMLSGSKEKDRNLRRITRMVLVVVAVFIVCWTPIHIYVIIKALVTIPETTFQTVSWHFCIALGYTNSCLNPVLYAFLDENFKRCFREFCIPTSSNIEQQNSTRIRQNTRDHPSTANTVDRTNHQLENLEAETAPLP
Summary of the method: as §1

Human neurokinin (NK1) = biological target: T10, Human neurokinin (NK1) (Homo sapiens, UniProt P25103); test: Radioligand binding, human neurokinin NK1 membranes, filtration, [125I]-Substance P; details: compound at 10 μM, [125I]-Substance P
T10 construct: purchased Perkin Elmer Biosignal
T10 sequence (P25103 whole entry): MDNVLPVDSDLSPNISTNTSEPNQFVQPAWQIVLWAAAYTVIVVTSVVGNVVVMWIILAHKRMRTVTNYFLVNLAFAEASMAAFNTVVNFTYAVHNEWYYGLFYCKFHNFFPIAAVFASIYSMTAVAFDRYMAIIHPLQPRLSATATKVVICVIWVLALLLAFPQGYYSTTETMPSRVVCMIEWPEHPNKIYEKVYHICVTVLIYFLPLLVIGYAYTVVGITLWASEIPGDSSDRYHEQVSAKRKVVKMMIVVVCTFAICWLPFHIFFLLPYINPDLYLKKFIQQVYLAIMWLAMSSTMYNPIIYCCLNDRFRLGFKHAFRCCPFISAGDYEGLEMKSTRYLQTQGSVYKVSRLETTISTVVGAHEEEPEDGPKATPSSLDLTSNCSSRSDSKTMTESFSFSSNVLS
Summary of the method: as §2

Human Melanocortin (MC3) = biological target: T11, Human Melanocortin (MC3) (Homo sapiens, UniProt P41968); test: Radioligand binding, human melanocortin MC3 membranes, FlashPlate, [125I]-NDP-αMSH; details: compound at 10 μM, [125I]-NDP-αMSH
T11 construct: purchased Perkin Elmer Biosignal
T11 sequence (P41968 whole entry): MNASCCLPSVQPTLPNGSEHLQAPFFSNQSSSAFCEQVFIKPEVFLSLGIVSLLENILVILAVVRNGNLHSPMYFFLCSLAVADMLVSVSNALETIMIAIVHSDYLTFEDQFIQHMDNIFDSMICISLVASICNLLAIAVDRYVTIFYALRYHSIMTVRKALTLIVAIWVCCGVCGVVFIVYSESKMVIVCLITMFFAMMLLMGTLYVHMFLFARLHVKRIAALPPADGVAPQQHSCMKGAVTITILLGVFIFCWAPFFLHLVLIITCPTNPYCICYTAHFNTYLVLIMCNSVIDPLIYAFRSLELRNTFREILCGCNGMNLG
Summary of the method: as §1

T1 sequence (P33032 whole entry): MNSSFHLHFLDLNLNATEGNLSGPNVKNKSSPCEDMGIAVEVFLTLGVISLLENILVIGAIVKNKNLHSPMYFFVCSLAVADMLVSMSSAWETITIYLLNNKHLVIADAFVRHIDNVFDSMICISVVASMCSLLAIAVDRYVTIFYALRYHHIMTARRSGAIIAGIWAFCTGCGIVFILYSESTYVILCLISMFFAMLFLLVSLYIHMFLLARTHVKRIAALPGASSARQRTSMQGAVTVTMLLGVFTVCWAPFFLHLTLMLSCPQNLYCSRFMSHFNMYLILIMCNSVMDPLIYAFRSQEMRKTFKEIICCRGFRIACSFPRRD

Row | SMILES | A5: inhibition of radioligand binding, human melanocortin (MC5) (Human melanocortin (MC5)) | A6: inhibition of radioligand binding, human melanin-concentrating hormone (MCH1) ([1]; [125I]-S36057) | A9: inhibition of radioligand binding, human neuropeptide Y (NPY-Y1) [2] | A1: inhibition of radioligand binding, human δ-opioid (DOP) (Human δ-opioid (DOP)) | A4: inhibition of radioligand binding, human melanocortin (MC4) (Human Melanocortin (MC4)) | A11: inhibition of radioligand binding, mouse urotensin (mUR2) (Mouse urotensin (mUR2)) | A10: inhibition of radioligand binding, human opioid (ORL1) (Human opioid (ORL1)) | A2: inhibition of radioligand binding, human κ-opioid (KOP) (Human κ-Opioid (KOP)) | A7: inhibition of radioligand binding, human μ-opioid (MOP) (Human μ-opioid (MOP)) | A8: inhibition of radioligand binding, human neurokinin (NK1) (Human neurokinin (NK1)) | A3: inhibition of radioligand binding, human melanocortin (MC3) (Human Melanocortin (MC3)) | also measured
1 | CSC1O[C@H](COCc2ccc3ccccc3c2)[C@@H](O)[C@@H](OCc2ccc(Cl)cc2)[C@H]1NC(=O)CCNC(=N)N (stereo partly shown) [compound 283] | – | – | – | – | – | – | – | – | – | – | – | A5: inhibition of radioligand binding (Human melanocortin (MC5); FlashPlate): + (“+” indicates greater than 50% inhibition at 10 μM); A6: inhibition of radioligand binding ([1]; [125I]-S36057, FlashPlate): − (“−” indicates less than 50% inhibition at 10 μM); A9: inhibition of radioligand binding ([2]; FlashPlate): − (“−” indicates less than 50% inhibition at 10 μM); A1: inhibition of radioligand binding (Human δ-opioid (DOP); FlashPlate): − (“−” indicates less than 50% inhibition at 10 μM); A4: inhibition of radioligand binding (Human Melanocortin (MC4); FlashPlate): + (“+” indicates greater than 50% inhibition at 10 μM); A11: inhibition of radioligand binding (Mouse urotensin (mUR2); FlashPlate): − (“−” indicates less than 50% inhibition at 10 μM); A10: inhibition of radioligand binding (Human opioid (ORL1); FlashPlate): − (“−” indicates less than 50% inhibition at 10 μM); A2: inhibition of radioligand binding (Human κ-Opioid (KOP); filtration): − (“−” indicates less than 50% inhibition at 10 μM); A7: inhibition of radioligand binding (Human μ-opioid (MOP); FlashPlate): − (“−” indicates less than 50% inhibition at 10 μM); A8: inhibition of radioligand binding (Human neurokinin (NK1); filtration): + (“+” indicates greater than 50% inhibition at 10 μM); A3: inhibition of radioligand binding (Human Melanocortin (MC3); FlashPlate): − (“−” indicates less than 50% inhibition at 10 μM)
2 | NCCC(=O)NC1C(OCc2ccccc2)OC(COCc2ccc3ccccc3c2)C(O)C1OCc1ccccc1 (stereo not shown) [compound 369] | − (“−” indicates less than 50% inhibition at 10 μM) | − (“−” indicates less than 50% inhibition at 10 μM) | − (“−” indicates less than 50% inhibition at 10 μM) | − (“−” indicates less than 50% inhibition at 10 μM) | + (“+” indicates greater than 50% inhibition at 10 μM) | − (“−” indicates less than 50% inhibition at 10 μM) | − (“−” indicates less than 50% inhibition at 10 μM) | − (“−” indicates less than 50% inhibition at 10 μM) | − (“−” indicates less than 50% inhibition at 10 μM) | + (“+” indicates greater than 50% inhibition at 10 μM) | − (“−” indicates less than 50% inhibition at 10 μM) | –
3 | COCC1OC(OCc2ccccc2)C(NC(=O)CCCN)C(OCc2ccccc2)C1O (stereo not shown) [compound 174] | – | – | – | – | – | – | – | – | – | – | – | A5 radioligand binding, percentage inhibition (Human melanocortin (MC5)): − (“−” indicates less than 50% inhibition at 10 μM); A6 radioligand binding, percentage inhibition ([1]; [125I]-S36057): − (“−” indicates less than 50% inhibition at 10 μM); A9 radioligand binding, percentage inhibition [2]: − (“−” indicates less than 50% inhibition at 10 μM); A1 radioligand binding, percentage inhibition (Human δ-opioid (DOP)): − (“−” indicates less than 50% inhibition at 10 μM); A4 radioligand binding, percentage inhibition (Human Melanocortin (MC4)): − (“−” indicates less than 50% inhibition at 10 μM); A11 radioligand binding, percentage inhibition (Mouse urotensin (mUR2)): − (“−” indicates less than 50% inhibition at 10 μM); A10 radioligand binding, percentage inhibition (Human opioid (ORL1)): − (“−” indicates less than 50% inhibition at 10 μM); A2 radioligand binding, percentage inhibition (Human κ-Opioid (KOP)): − (“−” indicates less than 50% inhibition at 10 μM); A7 radioligand binding, percentage inhibition (Human μ-opioid (MOP)): − (“−” indicates less than 50% inhibition at 10 μM); A8 radioligand binding, percentage inhibition (Human neurokinin (NK1)): + (“+” indicates greater than 50% inhibition at 10 μM); A3 radioligand binding, percentage inhibition (Human Melanocortin (MC3)): − (“−” indicates less than 50% inhibition at 10 μM)
4 | NCCCC(=O)NC1C(OCc2ccc(Cl)cc2)OC(COCc2ccc(Cl)cc2)C(O)C1OCc1ccc(Cl)cc1 (single isomer, unassigned) [compound 493] | + (“+” indicates greater than 50% inhibition at 10 μM) | + (“+” indicates greater than 50% inhibition at 10 μM) | − (“−” indicates less than 50% inhibition at 10 μM) | − (“−” indicates less than 50% inhibition at 10 μM) | + (“+” indicates greater than 50% inhibition at 10 μM) | − (“−” indicates less than 50% inhibition at 10 μM) | + (“+” indicates greater than 50% inhibition at 10 μM) | − (“−” indicates less than 50% inhibition at 10 μM) | − (“−” indicates less than 50% inhibition at 10 μM) | + (“+” indicates greater than 50% inhibition at 10 μM) | – | A3: inhibition of radioligand binding, human melanocortin (MC3) (Human Melanocortin (MC3); 10 µM): − (“−” indicates less than 50% inhibition at 10 μM)
5 | CSC1O[C@H](COCc2ccccc2)[C@@H](O)[C@@H](OCc2ccc(-c3ccccc3)cc2)[C@H]1NC(=O)CCCNC(=N)N (stereo partly shown) [compound 287] | − (“−” indicates less than 50% inhibition at 10 μM) | − (“−” indicates less than 50% inhibition at 10 μM) | − (“−” indicates less than 50% inhibition at 10 μM) | − (“−” indicates less than 50% inhibition at 10 μM) | − (“−” indicates less than 50% inhibition at 10 μM) | − (“−” indicates less than 50% inhibition at 10 μM) | − (“−” indicates less than 50% inhibition at 10 μM) | − (“−” indicates less than 50% inhibition at 10 μM) | − (“−” indicates less than 50% inhibition at 10 μM) | + (“+” indicates greater than 50% inhibition at 10 μM) | − (“−” indicates less than 50% inhibition at 10 μM) | –
